According to US20250144067A1, “PERSONALIZED STARVATION THERAPY FOR CANCER” (Faeth Therapeutics, Inc., priority 2021, published 2025):
Where two headings read alike, the source gives them in different places.

Experiments:
[1] = tested on: NCI-H292 lung cancer cells; assay: FDA drug screening, complete media vs cholesterol-free media without statin (TABLE 1); type: cell-based, human
[2] = tested on: NCI-H292 lung cancer cells; assay: FDA drug screening, complete media vs cholesterol-free media with simvastatin (TABLE 2); type: cell-based, human
[3] = Complete minus Cholesterol-free, >0 enhanced anti-cancer activity, about 0 neutral, <0 antagonist
[4] = NCI-H292 cells, cholesterol-free media without statin, FDA drug library screen
[5] = NCI-H292 cells, complete media, FDA drug library screen
[6] = NCI-H292 cells, FDA drug library screen, cholesterol-free media with simvastatin 0.04 μM
[7] = complete media minus cholesterol-free media + simvastatin, >0 enhanced anti-cancer activity, about 0 neutral, <0 antagonist
[8] = complete vs cholesterol-free media, >0 enhanced anti-cancer activity, about 0 neutral, <0 antagonist
[9] = NCI-H292 cells, FDA drug library screen, complete media
[10] = complete media vs cholesterol-free media + simvastatin (0.04 μM), >0 enhanced anti-cancer activity, about 0 neutral, <0 antagonist
[11] = Complete minus Cholesterol-free, […]
[12] = NCI-H292 cells, cholesterol-free media without statin
[13] = complete media vs cholesterol-free media + simvastatin (0.04 μM), […]
[14] = Complete minus Cholesterol-free, greater than 0 enhanced anti-cancer activity, about 0 neutral, below 0 antagonists
[15] = NCI-H292 cells in cholesterol-free media without statin
[16] = NCI-H292 cells in complete media
[17] = NCI-H292 cells, cholesterol-free media with simvastatin 0.04 μM, FDA drug library screen (TABLE 2)
[18] = complete media minus cholesterol-free media + simvastatin (0.04 μM), >0 enhanced anti-cancer activity, about 0 neutral, <0 antagonist
[19] = NCI-H292 cells, drug in cholesterol-free media with simvastatin 0.04 μM
[20] = NCI-H292 cells, drug in complete media
[21] = NCI-H292 cells, FDA drug library screen, cholesterol-free media without statin
[22] = complete media minus cholesterol-free media + simvastatin, […]
[23] = complete vs cholesterol-free media, […]
[24] = NCI-H292 cells, FDA library drug in cholesterol-free media with simvastatin 0.04 μM
[25] = NCI-H292 cells, FDA library drug in complete media
[26] = Complete minus Cholesterol-free, greater than 0 enhanced anti-cancer activity, about 0 neutral, below 0 antagonist
[27] = NCI-H292 cells, complete media, FDA drug library screen (TABLE 2)
[28] = NCI-H292 cells, cholesterol-free media with simvastatin 0.04 μM, cell growth value in FDA drug screen
[29] = NCI-H292 cells, complete media, cell growth value in FDA drug screen
[30] = complete media minus cholesterol-free media + simvastatin (0.04 μM), […]

Ifenprodil (tartrate)
Difference [1, 3]: 0.02
Cholesterol-free [1, 4]: 0.8921
Complete [1, 5]: 0.9115
Cholesterol-free media + simvastatin (0.04 μM) [2, 6]: 0.4918
Difference [2, 7]: 0.57

Imatinib (Mesylate)
Cholesterol-free [1, 4]: 0.5677
Complete [1, 5]: 1.017
Difference [1, 8]: 0.45
Cholesterol-free media + simvastatin (0.04 μM) [2, 6]: 1.089
Complete Media [2, 9]: 0.9411
Difference [2, 10]: −0.15

Indacaterol (maleate)
Difference [1, 11]: −0.20
Cholesterol-free [1, 12]: 1.314
Complete ([1]; NCI-H292 cells, complete media): 1.116
Cholesterol-free media + simvastatin (0.04 μM) [2, 6]: 1.032
Complete Media [2, 9]: 0.9157
Difference [2, 13]: −0.12

Indinavir (sulfate)
Difference [1, 14]: −0.65
Cholesterol-free [1, 15]: 1.599
Complete [1, 16]: 0.946
Cholesterol-free media + simvastatin (0.04 μM) [2, 17]: 0.8636
Difference [2, 18]: 0.01

Inulin
Difference [1, 11]: −0.02
Cholesterol-free [1, 4]: 0.9221
Complete [1, 5]: 0.9055
Cholesterol-free media + simvastatin (0.04 μM) [2, 19]: 1.179
Complete Media [2, 20]: 0.9318
Difference [2, 13]: −0.25

Iproniazid (phosphate)
Difference [1, 3]: −0.26
Complete ([1]; NCI-H292 cells, complete media): 0.8468
Difference [2, 10]: −0.09

Isoconazole (nitrate)
Difference [1, 11]: −0.15
Cholesterol-free [1, 21]: 1.53
Complete [1, 9]: 1.383
Cholesterol-free media + simvastatin (0.04 μM) [2, 6]: 0.3001
Complete Media [2, 9]: 0.7337
Difference [2, 22]: 0.43

Kanamycin (sulfate)
Cholesterol-free [1, 12]: 1.851
Complete ([1]; NCI-H292 cells, complete media): 1.486
Difference [1, 23]: −0.36
Cholesterol-free media + simvastatin (0.04 μM) [2, 6]: 1.825
Complete Media [2, 9]: 1.703
Difference [2, 13]: −0.12

Ketanserin (tartrate)
Difference [1, 3]: 0.03
Cholesterol-free [1, 4]: 0.9853
Complete [1, 5]: 1.019
Cholesterol-free media + simvastatin (0.04 μM) [2, 19]: 1.267
Difference [2, 10]: −0.22

Ketotifen (fumarate)
Difference [1, 11]: −0.71
Cholesterol-free [1, 15]: 1.545
Complete [1, 16]: 0.8394
Cholesterol-free media + simvastatin (0.04 μM) [2, 24]: 1.876
Complete Media [2, 25]: 1.552
Difference [2, 13]: −0.32

Lanreotide (acetate)
Difference [1, 11]: −0.24
Cholesterol-free [1, 12]: 1.287
Complete ([1]; NCI-H292 cells, complete media): 1.045
Cholesterol-free media + simvastatin (0.04 μM) [2, 19]: 1.388
Complete Media [2, 20]: 1.218
Difference [2, 13]: −0.17

Lapatinib (ditosylate)
Difference [1, 26]: −0.15
Cholesterol-free [1, 21]: 0.4354
Complete [1, 9]: 0.2847
Cholesterol-free media + simvastatin (0.04 μM) [2, 17]: 0.4889
Complete Media [2, 27]: 0.4758
Difference [2, 18]: −0.01

Lasofoxifene (Tartrate)
Cholesterol-free [1, 12]: 1.19
Complete ([1]; NCI-H292 cells, complete media): 0.7569
Difference [1, 23]: −0.43
Cholesterol-free media + simvastatin (0.04 μM) [2, 6]: 0.6494
Complete Media [2, 9]: 0.9428
Difference [2, 22]: 0.29

Lefamulin (acetate)
Difference [1, 11]: −0.23
Cholesterol-free [1, 12]: 1.096
Complete ([1]; NCI-H292 cells, complete media): 0.8619
Cholesterol-free media + simvastatin (0.04 μM) [2, 6]: 1.429
Complete Media [2, 9]: 1.575
Difference [2, 22]: 0.15

Lenvatinib (mesylate)
Difference [1, 26]: −0.10
Cholesterol-free [1, 21]: 0.845
Complete [1, 9]: 0.7401
Cholesterol-free media + simvastatin (0.04 μM) [2, 17]: 1.17
Complete Media [2, 27]: 1.154
Difference [2, 18]: −0.02

Leuprolide (Acetate)
Cholesterol-free [1]: 1
Complete [1]: 0.6877
Difference [1]: −0.31
Cholesterol-free media + simvastatin (0.04 μM) [2]: 1.032
Complete Media [2]: 1.087
Difference [2]: 0.06

Levamlodipine besylate
Cholesterol-free [1]: 1.261
Difference [1]: −0.22
Cholesterol-free media + simvastatin (0.04 μM) [2]: 1.066
Complete Media [2]: 0.9372
Difference [2]: −0.13

Loxapine (succinate)
Difference [1, 14]: −0.72
Cholesterol-free [1, 15]: 1.602
Complete [1, 16]: 0.8776
Cholesterol-free media + simvastatin (0.04 μM) [2, 28]: 1.274
Complete Media [2, 29]: 1.361
Difference [2, 7]: 0.09

Lumateperone (tosylate)
Difference [1, 11]: −0.84
Cholesterol-free [1, 15]: 1.615
Cholesterol-free media + simvastatin (0.04 μM) [2, 17]: 1.37
Complete Media [2, 27]: 1.357
Difference [2, 30]: −0.01

Mafenide (Acetate)
Difference [1, 26]: −0.16
Cholesterol-free [1, 21]: 1.179
Complete [1, 9]: 1.017
Cholesterol-free media + simvastatin (0.04 μM) [2, 28]: 0.8255
Complete Media [2, 29]: 0.8982
Difference [2, 7]: 0.07

Maraviroc
Cholesterol-free [1, 4]: 0.6337
Complete [1, 5]: 0.8933
Difference [1, 23]: 0.26
Difference [2, 22]: 0.03

Masitinib (mesylate)
Difference [1, 26]: −0.14
Cholesterol-free [1, 21]: 1.027
Complete [1, 9]: 0.8899
Cholesterol-free media + simvastatin (0.04 μM) [2, 6]: 1.086
Complete Media [2, 9]: 1.002
Difference [2, 10]: −0.08

Medroxyprogesterone
Difference [1, 11]: −0.03
Complete [1, 5]: 0.9783
Cholesterol-free media + simvastatin (0.04 μM) [2, 6]: 0.8858
Complete Media [2, 9]: 1.173
Difference [2, 22]: 0.29

Merbromin
Cholesterol-free [1, 4]: 1.294
Complete [1, 5]: 1.544
Difference [1, 23]: 0.25
Cholesterol-free media + simvastatin (0.04 μM) [2, 17]: 1.023
Complete Media [2, 27]: 1.006
Difference [2, 30]: −0.02

Metaproterenol (hemisulfate)
Cholesterol-free [1, 4]: 0.8425
Difference [1, 8]: 0.09
Cholesterol-free media + simvastatin (0.04 μM) [2, 19]: 1.002
Complete Media [2, 20]: 0.7891
Difference [2, 10]: −0.21

Methylergometrine (maleate)
Cholesterol-free [1, 12]: 1.022
Difference [1, 23]: −0.31
Cholesterol-free media + simvastatin (0.04 μM) [2, 6]: 1.017
Complete Media [2, 9]: 0.9007
Difference [2, 13]: −0.12

Metoprolol (Succinate)
Difference [1, 3]: 0.02
Cholesterol-free [1, 4]: 0.9592
Complete [1, 5]: 0.9837
Cholesterol-free media + simvastatin (0.04 μM) [2, 19]: 1.072
Complete Media [2, 20]: 0.8786
Difference [2, 10]: −0.19

Miconazole (nitrate)
Cholesterol-free [1]: 0.9239
Complete [1]: 0.8136
Difference [1]: −0.11
Cholesterol-free media + simvastatin (0.04 μM) [2]: 0.4137
Complete Media [2]: 0.8009
Difference [2]: 0.39

Mosapride (citrate)
Cholesterol-free [1, 4]: 0.9953
Complete [1, 5]: 1.241
Difference [1, 8]: 0.25
Cholesterol-free media + simvastatin (0.04 μM) [2, 6]: 0.963
Complete Media [2, 9]: 0.8629
Difference [2, 10]: −0.10

Nafamostat (mesylate)
Cholesterol-free [1, 12]: 1.215
Complete ([1]; NCI-H292 cells, complete media): 0.8839
Difference ([1]; complete vs cholesterol-free media, greater than 0 enhanced anti-cancer activity, about 0 neutral, below 0 antagonists): −0.33
Cholesterol-free media + simvastatin (0.04 μM) [2, 19]: 1.2
Complete Media [2, 20]: 0.9501
Difference [2, 10]: −0.25

Naloxegol (oxalate)
Difference [1, 11]: −0.15
Cholesterol-free [1, 21]: 1.025
Cholesterol-free media + simvastatin (0.04 μM) [2, 6]: 0.8544
Difference [2, 22]: 0.21

Nelfinavir (Mesylate)
Difference [1, 3]: −0.02
Cholesterol-free [1, 4]: 1.193
Complete [1, 5]: 1.169
Cholesterol-free media + simvastatin (0.04 μM) [2, 24]: 1.565
Complete Media [2, 25]: 1.199
Difference [2, 10]: −0.37

Niraparib (tosylate)
Cholesterol-free [1]: 1.671
Difference [1]: −0.63
Cholesterol-free media + simvastatin (0.04 μM) [2]: 1.448
Complete Media [2]: 1.091
Difference [2]: −0.36
